Test results from paper PMC9673926, “Nucleotide binding as an allosteric regulatory mechanism for Akkermansia muciniphila β-N-acetylhexosaminidase Am2136” (Gut Microbes, 2022).
Substitutions are numbered along the chain they refer to.

Assays:
Test in all cases: GDP regulated enzyme activity assay, mutant
[1] = target: T1, Am2136 Y327F+Y331F (Akkermansia muciniphila, UniProt B2UPR7, Y327F/Y331F); details: 1 mM GDP, substrate pNP-β-GlcNAc
T1 sequence (B2UPR7 20-756 Y327F/Y331F): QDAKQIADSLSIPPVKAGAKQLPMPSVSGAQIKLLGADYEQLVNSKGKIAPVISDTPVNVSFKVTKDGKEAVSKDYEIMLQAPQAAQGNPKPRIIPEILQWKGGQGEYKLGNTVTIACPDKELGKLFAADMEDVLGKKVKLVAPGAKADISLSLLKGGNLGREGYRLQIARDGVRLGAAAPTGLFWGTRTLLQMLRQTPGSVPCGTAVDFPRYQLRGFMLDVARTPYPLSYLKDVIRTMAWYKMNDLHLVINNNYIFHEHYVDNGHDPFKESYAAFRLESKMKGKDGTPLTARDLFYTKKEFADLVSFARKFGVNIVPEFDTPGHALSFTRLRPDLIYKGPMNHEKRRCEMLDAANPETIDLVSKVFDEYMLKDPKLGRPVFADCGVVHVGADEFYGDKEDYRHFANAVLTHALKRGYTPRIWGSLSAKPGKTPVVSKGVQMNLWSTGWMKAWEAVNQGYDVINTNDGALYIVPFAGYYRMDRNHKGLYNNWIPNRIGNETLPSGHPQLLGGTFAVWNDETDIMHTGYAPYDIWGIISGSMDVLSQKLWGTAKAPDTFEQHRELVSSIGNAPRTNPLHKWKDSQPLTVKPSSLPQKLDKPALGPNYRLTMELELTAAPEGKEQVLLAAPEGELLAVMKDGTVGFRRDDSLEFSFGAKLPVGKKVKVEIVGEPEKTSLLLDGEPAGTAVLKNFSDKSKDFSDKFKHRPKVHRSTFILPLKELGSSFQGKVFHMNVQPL

[2] = target: T2, Am2136 P595A+H597A (Akkermansia muciniphila, UniProt B2UPR7, H597A/P595A); details: 1 mM GDP
T2 sequence (B2UPR7 20-756 P595A/H597A): T1 sequence (B2UPR7 20-756 Y327F/Y331F) with F308Y, F312Y, P576A, H578A

[3] = target: T3, Am2136 R592A (Akkermansia muciniphila, UniProt B2UPR7, R592A); details: 1 mM GDP, substrate pNP-β-GlcNAc
T3 sequence (B2UPR7 20-756 R592A): T1 sequence (B2UPR7 20-756 Y327F/Y331F) with F308Y, F312Y, R573A

Nc1nc2c(ncn2[C@@H]2O[C@H](COP(=O)(O)OP(=O)(O)O)[C@@H](O)[C@H]2O)c(=O)[nH]1 [GDP]
Vmax [1]: 473 ± 6 µmol/min | Vmax ([2]; P595A+H597A, substrate pNP-β-GlcNAc): 447 ± 4 µmol/min | increase of kcat/Km with versus without GDP ([2]; P595A/H597A): roughly two-fold increase | Vmax [3]: 442 ± 5 µmol/min
